Experimental data: the pKa sets of Baltruschat and Czodrowski (2020)

Conditions: acidic group

SMILES | pKa
c1ccc(Nc2nnn[nH]2)cc1 | 6.3
Cc1cc2ccccc2c(C(=O)O)c1C | 3.33
COc1ccccc1/C=C/C=N\O | 11.3
[NH3+]c1ccccc1O[C@H]1O[C@@H](C(=O)O)[C@H](O)[C@@H](O)[C@@H]1O | 3.3
CC(C)CC(N)C(N)=O (stereo not drawn) | 8
ONc1ccccc1 | 10.7
O=c1[nH]c(=S)c2[nH]cnc2[nH]1 | 6.2
Oc1ccc(I)cc1 | 9.32
CC1(C)C(=O)CC(=O)CC1=O | 4.2
NC(=O)CNCCCNCC(N)=O | 7.27
NS(=O)(=O)c1cccc([N+](=O)[O-])c1 | 9.19
S=c1[nH]c2ccccc2[nH]1 | 10.2
O=C([O-])/C=C\c1ccccc1O | 10.7
CC(C)CCOc1ccccc1/C=C/C(=O)O | 4.85
Fc1ccc(S)cc1 | 6.35
CCc1cc(CC)c(OC)c(C(=O)NC[C@H]2CCC[NH+]2CC)c1O | 7.24
COc1ccc(O)cc1 | 10.2
O=C(O)c1c(O)cccc1[N+](=O)[O-] | 2.24
O=S1(=O)N=CNc2cccnc21 | 6.94
O=C1CCC(=O)C1=O | 8.48
CC(C)=CCC1=C(O)[C@](O)(CC=C(C)C)C(=O)C(C(=O)CC(C)C)=C1O | 4.22

SMILES | pKa
Nc1cc(N)c2cccnc2c1O | 10.8
Cc1cccc(C(=O)O)c1O | 3.02
CCSC(O)O | 11.5
CC(=O)N[C@H]1CC(=O)NC1=O | 8.85
C[n+]1cccc(C(=O)O)c1 | 2.29
CCCCS | 10.8
CC1(C)[C@@H]2CC[C@](C(=O)O)(C2)[C@@H]1O | 4.83
CCCS(=O)O | 2.35
OC(c1ccncc1)(c1ccncc1)c1ccncc1 | 11.8
N#CC(C#N)=C(Br)C(C#N)C#N | 2.6
O=C(O)[C@H]1C[C@@H]1c1ccccc1 | 4.54
O=[N+]([O-])c1cccc(/C=C/C=N/O)c1 | 10.2
Cn1ccnc1CS | 8.88
N#CC(C#N)=C(O)c1ccc(N)cc1 | 4.28
O=C(O)C(c1ccc(-c2ccccc2)cc1)C1(O)CCCC1 (stereo not drawn) | 3.65
CCN(CC)c1nnn[nH]1 | 6.33
Cc1cc(C)cc(O)c1 | 10.1
CC[NH+](CC)CC(=O)O | 1.98
Oc1c(C(Nc2nc3ccccc3s2)c2ccccn2)ccc2cccnc12 (stereo not drawn) | 10.9
CNC(=O)c1ncnc2nc[nH]c12 | 8.9
CC1(C)CC(=O)C2=C(C1)NC1=C(C2)C(=O)CC(C)(C)C1 | 3.6

SMILES | pKa
C/C=C/C1=C(O)C(=O)c2ccccc2C1=O | 4.78
NS(=O)(=O)c1cc2c(cc1Cl)N=CNS2(=O)=O | 6.7
O=C([O-])c1ccccc1-n1nc(O)cc1-c1ccccc1 | 12.5
O=C(O)CSc1ccc(S)cc1 | 3.77
O=C([O-])/C=C/C(=O)CC(=O)CC(=O)[O-] | 8.4
C[S+](C)CC(=O)c1ccc([N+](=O)[O-])cc1 | 6.7
COc1cnc[nH+]c1O | 1.75
CN1CC(=O)NC1=O | 11.4
CCCCCCCCCC(=O)O | 4.89
CCC#CC(=O)O | 2.6
Oc1ccccc1O | 9.33
C[N+](C)(C)Cc1cccc(O)c1 | 8.89
CCCCCCCC(=O)N[C@H]1C(=O)N2[C@H]1SC(C)(C)[C@H]2C(=O)O | 2.66
CCCCCCP(=O)(CCCCCC)CCCCCC | 12.8
O=C1NC(=O)c2c1cccc2[N+](=O)[O-] | 8.8
O=C([O-])c1cccc2ccc(O)cc12 | 9.6
c1ccc(-c2nnn[nH]2)cc1 | 4.03
CCC(CC)C(=O)O | 4.73
CC(C)CCC([NH3+])C(=O)O (stereo not drawn) | 3.06
C[N+](C)(C)CC(O)CC(=O)O (stereo not drawn) | 3.8
CCC(=O)OO | 8.1

SMILES | pKa
Cc1ncc(CO)c(CO)c1O | 8.98
O=C(O)Cc1ccoc1 | 4.07
[NH3+]C(Cc1c[nH]c2ccccc12)C(=O)O (stereo not drawn) | 2.48
CCSC(C)O (stereo not drawn) | 14.3
c1cnc2nc[nH]c2c1 | 11.1
Oc1ccc(F)cc1 | 9.88
O=C(O)C[Se]c1ccccc1 | 3.75
O=C([O-])[C@H](NCC[NH2+][C@@H](C(=O)[O-])c1ccccc1O)c1ccccc1O | 8.79
C/C=C(\Cl)C(=O)O | 3.22
COP(=O)(O)NS(=O)(=O)c1ccccc1 | 1.05
O=C(O)CSc1ccccc1[N+](=O)[O-] | 3.18
[O-]c1ccc(-c2ccc(O)cc2)cc1 | 14.1
O=C(O)c1ccnnc1 | 2.8
Cc1ccc(C(=S)Nc2cccc(F)c2)cc1 | 10.6
CNC(=S)OC(C)C | 11.6
Cc1ccc(Br)c(C(=O)O)c1 | 3
CC(=O)[C@H]1C[C@@H](CC(=O)O)C1(C)C | 4.82
COc1ccc2c3c([nH]c2c1)C(C)NCC3 (stereo not drawn) | 15.6
Cc1ccc(C(=O)O)c([N+](=O)[O-])c1 | 2.68

Same assay, conditions: basic group

SMILES | pKa
C[C@H]1[C@@H](N)[C@@H](C)[C@@H](N)[C@@H](C)[C@H]1N | 7.83
CCOc1ccc2nc(/C=C/C=C/c3ccccc3)cc(N)c2c1 | 9.5
NCC/C(N)=N/O | 9.15
NC(=S)C1([NH3+])CCCCC1 | -8.08
COC(=O)[C@@H]([NH3+])Cc1c[nH]cn1 | 5.38
Cc1cccc(-n2nnnc2N)c1 | 1.08
